The pEC50 is the negative decadic logarithm of the EC50, by convention in mol/L. A low value points to a high EC50. By pIC50 is commonly meant −log10 of the IC50, conventionally taken in molar units. Low values mean a high IC50, high ones a low IC50.

For one data set, the system named is HIV-1. The data set is described as follows: Therapeutic index (TI) was measured as ratio of IC50 and EC50 (HIV-1). The following applies: human immunodeficiency virus 1; read-out: TI50.
The test system of data set [1] is CCRF-CEM. Kind of data set: Inhibitory activity against T4-lymphocytes (CEM cell line) infected with HIV-1; active. Conditions: Homo sapiens. It is filed as functional, cell-based.
The test system of data set [2] is Human immunodeficiency virus 1. The data set is described as follows: Inhibitory activity against HIV-1 in T4-lymphocytes (CEM cell line). It is filed as functional, organism-based. The following applies: Human immunodeficiency virus 1, CCRF-CEM.
For data set [3], the system named is CCRF-CEM. Kind of data set: Inhibition of T4-lymphocytes (CEM cell line) infected with HIV-1. The format is functional, cell-based. Conditions: Homo sapiens.
Data set [4] deals with Human immunodeficiency virus 1. Kind of data set: Inhibitory activity against T4-lymphocytes (CEM cell line) infected with HIV-1; moderate. It is filed as functional, organism-based. Conditions: CCRF-CEM.

pEC50, pIC50: −log10 of the molar value. Active and inactive are the calls of the source. The rule behind the calls is not given here.

Consider `Cn1cc(NC(=O)c2cc(NC(=O)c3ccc(C(=O)Nc4cc(C(=O)Nc5cc(C(=O)NCCC(=N)N)n(C)c5)n(C)c4)cc3)cn2C)cc1C(=O)NCCC(=N)N`, for which the selectivity ratio in the data set on HIV-1 was determined as 14.8. In addition, the result in the data set with CCRF-CEM [1] was Active. Also, in data set [2], the pEC50 is 5.92. Also, the pIC50 with CCRF-CEM [3] is 4.75.

Regarding `Cn1cc(NC(=O)c2cc(NC(=O)c3cc(NC(=O)CCCCCCCCC(=O)Nc4cc(C(=O)Nc5cc(C(=O)Nc6cc(C(=O)NCCC(=N)N)n(C)c6)n(C)c5)n(C)c4)cn3C)cn2C)cc1C(=O)NCCC(=N)N`, the Activity result in data set [4] was “Moderate”.
